Experimental data from patent US20050238706A1, “Pharmaceutically active lipid based formulation of SN-38” (NeoPharm, Inc., priority 2002, published 2005).

What was measured:
[1] = tested on: Capan-1 human pancreatic cancer cells; test: Therapeutic efficacy in Capan-1 xenograft, SCID mice; type: in vivo; conditions: day 28 post treatment, n = 5
Source text: (§1) Either female CD2F1 (6-8 weeks old) mice or female C.B-17 SCID mice (4-6 weeks old) were obtained from the vendor and maintained as described previously. The CD2F1 mice were transplanted with P388 murine leukemia tumor cells, whereas the SCID mice were transplanted with HT-29 human colon cancer cells, Capan-1 human pancreatic cancer cells and MX-1 human breast cancer cells. After a suitable waiting period (waiting period varied based on the tumor models), each mouse received intravenous injection via tail vein of placebo liposomes, LE-SN38 or CPT-11 at pre-determined dose levels.

[2] = tested on: HT-29 human colon cancer cells; test: Therapeutic efficacy in HT-29 xenograft, SCID mice; type: in vivo; conditions: 8 mg/kg × 5, iv, day 28 post treatment, n = 5
Source text: as §1

[3] = tested on: P388 murine leukemia tumor cells; test: Therapeutic efficacy in P388 tumor bearing CD2F1 mice; type: in vivo, mouse; conditions: for 60-day % Survival: n = 10
Source text: as §1

[4] = tested on: topoisomerase I purified from human and rodent tumor cell lines; conditions: enzyme purified from human and rodent tumor cell lines; cited from earlier work
[5] = cited from earlier work

SMILES	% Growth Inhibition ([1]; 8 mg/kg × 5, iv)	% Growth Inhibition ([1]; 16 mg/kg × 5, iv)	% Growth Inhibition [2]	median survival time ([3]; 4 mg/kg for 5 consecutive days)	60-day % Survival ([3]; 4 mg/kg × 5, iv)	median survival time ([3]; 8 mg/kg for 5 consecutive days)	60-day % Survival ([3]; 8 mg/kg × 5, iv)	median survival time ([3]; 16 mg/kg for 5 consecutive days)	potency as an inhibitor of topoisomerase I relative to irinotecan [4]	solubility in aqueous solutions [5]
CCc1c2c(nc3ccc(OC(=O)N4CCC(N5CCCCC5)CC4)cc13)-c1cc3c(c(=O)n1C2)COC(=O)[C@]3(O)CC [CPT-11, irinotecan]	47.8%	68.7%	36%	16 days	0%	20 days	0%	22 days	–	–
CCc1c2c(nc3ccc(O)cc13)-c1cc3c(c(=O)n1C2)COC(=O)[C@]3(O)CC [SN38, (+)-(4S)-4,11-diethyl-4,9-dihydroxy-1H-pyrano[3′,4′:6,7]-indolizino[1,2-b]quinoline-3,14(4H,12H)-dione]	–	–	–	–	–	–	–	–	approximately 1000 times	exceedingly insoluble
